Values after ≈ are worked out from the molar mass of the structure shown.
What was measured:
[1] = cited from earlier work; for water solubility: background statement
[2] = system: Taxol resistant cell line; assay: cytopathic effects on Taxol resistant cell line (FIG. 10, 11); assay type: cell-based; conditions: 5 microgram/ml Taxol, FIG. 11
Description: FIG. 10A. A taxol resistant cell line without treatment (in vitro) showing aggressive growth. FIG. 10B. The same cell line treated with the hybrid taxol, showing cytopathic effects.

Row | SMILES | water solubility [1] | solubility in DMSO ([1]; DMSO) [mg/mL] | solubility in water ([1]; estimated) [µM] | solubility in ethanol ([1]; ethanol, with warming) [mg/mL] | cytopathic effects at very low concentration [2]
1 | CC1=C(/C=C/C(C)=C/C=C/C(C)=C/C(=O)O)C(C)(C)CCC1 [All-trans-retinoic acid] | not water-soluble | – | – | – | –
2 | C=C(c1ccc(C(=O)O)cc1)c1cc2c(cc1C)C(C)(C)CCC2(C)C [Bexarotene] | poorly soluble in water | 65 (≈ 187 mM) | 10 to 50 | 10 (≈ 28.7 mM) | –
3 | CC(=O)O[C@H]1C(=O)[C@@]2(C)[C@H]([C@H](OC(=O)c3ccccc3)[C@]3(O)C[C@H](OC(=O)[C@H](O)[C@@H](NC(=O)c4ccccc4)c4ccccc4)C(C)=C1C3(C)C)[C@]1(OC(C)=O)CO[C@@H]1C[C@@H]2O [Taxol, paclitaxel] | very poorly water-soluble | – | – | – | cytopathic effects are observed

From patent US9895322B2, “Pharmaceutical compositions for the delivery of substantially water-insoluble drugs” (priority 2012, dated 2018)
